Test: RP, Thermo Scientific Acclaim RSLC 120 C18, 100 × 2.1 mm, 2.2 µm, 30 °C, 0.2 mL/min, estimated dead time 1.1 min; A: 90% water + 10% methanol + 0.01% formic acid + 5 mM ammonium formate, pH 3.61; B: methanol + 0.01% formic acid + 5 mM ammonium formate, pH 3.61; gradient (min/%B) 0/1 1/1 2/39 13/99.9 15/99.9 15.1/1 20.1/1
Conditions: stereoisomer not certain
With Clc1ccc(C(Cn2ccnc2)OCc2ccc(Sc3ccccc3)cc2)c(Cl)c1 (stereo not drawn) [Fenticonazole] the LC retention time was 13.4 min. For CCCCOCCOCCOCc1cc2c(cc1CCC)OCO2 [Piperonyl butoxide], the LC retention time was 12.4 min. Molecule CC(Cc1ccccc1)NCCCCl (stereo not drawn) [Mefenorex] has an LC retention time of 5.31 min. For CNC(=O)Oc1ccccc1C1OCCO1 [Dioxacarb], the LC retention time was 5.16 min. For CCCCC(CC)CN1C(=O)C2C3C=CC(C3)C2C1=O (stereo not drawn) [MGK-264], the LC retention time was 11.6 min. Work on Cc1cccc(C)c1N(C(=O)CCl)C1CCOC1=O (stereo not drawn) [Ofurace] yielded an LC retention time of 7 min. Molecule CC(C)(C)NCC(O)COc1cc(C(=O)O)ccc1Cl (stereo not drawn) [Bupranolol- 5-Carboxy] has an LC retention time of 5.01 min. With CCN1CCCC1CNC(=O)c1cc(S(N)(=O)=O)ccc1O (stereo not drawn) [Sulpiride-O-Desmethyl] the LC retention time was 3.18 min. Work on O=C(O)CCC(=O)c1ccc(F)cc1 [4-Fluorobenzoylpropionic acid] yielded an LC retention time of 6.09 min. With CN1CCCC1CCOC(C)(c1ccccc1)c1ccc(Cl)cc1 (stereo not drawn) [Clemastine] the LC retention time was 9.31 min. For Cc1cn(C2CC(N=[N+]=[N-])C(CO)O2)c(=O)[nH]c1=O (stereo not drawn) [Zidovudine], the LC retention time was 4.56 min. CCCC(NC)C(=O)c1ccccc1 (stereo not drawn) [Pentedrone] showed an LC retention time of 4.89 min. With CCOP(=S)(OCC)Oc1cc(-c2ccccc2)on1 [Isoxathion] the LC retention time was 11.3 min. CN1CC2CC1CN2c1cc2c(cc1F)c(=O)c(C(=O)O)cn2C1CC1 (stereo not drawn) [Danofloxacin] gave an LC retention time of 4.54 min. CNCCCC(C#N)(c1ccc(OC)c(OC)c1)C(C)C (stereo not drawn) [D617 (met. of verapamil)] showed an LC retention time of 6.14 min. For CCN1CCCC1CNC(=O)c1cc(S(=O)(=O)CC)c(N)cc1OC (stereo not drawn) [Amisulpride], the LC retention time was 3.88 min. In the case of COP(=O)(OC)C(O)C(Cl)(Cl)Cl (stereo not drawn) [Trichlorfon (Dylox)], the LC retention time is reported as 5.23 min. Work on O=C1C2CC=CCC2C(=O)N1SC(Cl)(Cl)Cl (stereo not drawn) [Captan] yielded an LC retention time of 8.77 min. COc1cccc(N(C)C(=S)Oc2cccc(C(C)(C)C)c2)n1 [Pyributicarb] gave an LC retention time of 12.5 min. In the case of CCCCCn1cc(C(=O)C23CC4CC(CC(C4)C2)C3)c2ccccc21 [JWH-018-Adamantoyl. AB-001], the LC retention time is reported as 13.7 min. For CCCN(CCC)c1c([N+](=O)[O-])cc(S(N)(=O)=O)cc1[N+](=O)[O-] [Oryzalin], the LC retention time was 10.3 min. Molecule CN1CCC(OC(c2ccccc2)c2ccccc2)CC1 [Diphenylpyraline] has an LC retention time of 7.23 min. Molecule Cc1nc(N(C)C)nc(OC(=O)N(C)C)c1C [Pirimicarb] has an LC retention time of 7.77 min. CC(C)(O)c1ccccc1CCC(SCC1(CC(=O)O)CC1)c1cccc(C=Cc2ccc3ccc(Cl)cc3n2)c1 (stereo not drawn) [Montelukast] showed an LC retention time of 13.4 min. COP(=S)(OC)Oc1cc(Cl)c(Cl)cc1Cl [Fenclofos.Ronnel] showed an LC retention time of 12.5 min. O=C1Cc2cc(CCN3CCN(c4nsc5ccccc45)CC3)c(Cl)cc2N1 [Ziprasidone] gave an LC retention time of 8.03 min. Molecule S=c1[nH]c2ccccc2s1 [Benzothiazole-Mercapto] has an LC retention time of 6.89 min. With OC(Cc1ccccc1Cl)(Cn1cncn1)C1(Cl)CC1 (stereo not drawn) [Prothioconazole-desethio] the LC retention time was 10.5 min. CCCCCn1nc(C(=O)NC(C(N)=O)C(C)C)c2ccccc21 (stereo not drawn) [AB-PINACA] showed an LC retention time of 10.5 min. CN(C)Cc1nnc2n1-c1ccc(Cl)cc1C(c1ccccc1)=NC2 [Adinazolam] showed an LC retention time of 8.28 min. Work on CC1=C(C(=O)Nc2ccccc2)S(=O)(=O)CCO1 [Carboxin-Oxy] yielded an LC retention time of 5.59 min. With CN1C(=O)CN=C(c2ccccc2Cl)c2cc(Cl)ccc21 [Diclazepam] the LC retention time was 9.19 min. Cc1[nH]c(C)c(Cl)c(=O)c1Cl [Clopidol] showed an LC retention time of 4.2 min. Molecule CC1=C(C)S(=O)(=O)CCS1(=O)=O [Dimethipin] has an LC retention time of 3.73 min. For CNCC(c1ccc(O)cc1)C1(O)CCCCC1 [Venlafaxine-D L-N O-Didesmethyl], the LC retention time was 4.91 min. CC(=O)OCC(=O)C12OC3(CCCC3)OC1CC1C3CCC4=CC(=O)C=CC4(C)C3(F)C(O)CC12C (stereo not drawn) [Amcinonide] gave an LC retention time of 11.2 min. With CC1C(c2ccc(Cl)cc2)SC(=O)N1C(=O)NC1CCCCC1 (stereo not drawn) [Hexythiazox] the LC retention time was 12.6 min. CCN(CC)CCCOC(=O)C1(c2ccccc2)CC2CCC1C2 (stereo not drawn) [Bornaprine] gave an LC retention time of 8.54 min. Molecule CCC(C)C1OC2(C=CC1C)CC1CC(CC=C(C)C(OC3CC(OC)C(OC4CC(OC)C(O)C(C)O4)C(C)O3)C(C)C=CC=C3COC4C(O)C(C)=CC(C(=O)O1)C34O)O2 (stereo not drawn) [AvermectinB1a (Abamectin)] has an LC retention time of 13.6 min. O=c1[nH]cnc2[nH]ncc12 [Allopurinol] showed an LC retention time of 2.19 min. C1COC(NC(C2CC2)C2CC2)=N1 [Rilmenidine] gave an LC retention time of 4.4 min. Molecule CC(C)CCOc1ccc(NC(=S)Nc2ccc(OCCC(C)C)cc2)cc1 [Tiocarlide] has an LC retention time of 13 min. In the case of O=C(O)CCCCn1cc(C(=O)c2cccc3ccccc23)c2ccccc21 [JWH-018-M-N-Pentanoic acid], the LC retention time is reported as 9.71 min. CON=C(C(=O)NC1C(=O)N2C(C(=O)[O-])=C(C[n+]3cccc4c3CCCC4)CSC12)c1csc(N)n1 (stereo not drawn) [Cefquinome] gave an LC retention time of 3.76 min. For COC(=O)COc1nc(Cl)c(Cl)cc1Cl [Triclopyr-methylester], the LC retention time was 10.4 min. In the case of Cc1nnc2n1-c1ccc([N+](=O)[O-])cc1C(c1ccccc1)=NC2 [Nitrazolam], the LC retention time is reported as 6.91 min. Molecule COC(=O)Nc1cccc(OC(=O)Nc2cccc(C)c2)c1 [Phenmedipham] has an LC retention time of 8.75 min. CC(C)OC(=O)C(O)(c1ccc(Br)cc1)c1ccc(Br)cc1 [Bromopropylate] showed an LC retention time of 12.5 min. For Nc1ccc(Cl)cc1C(=O)c1ccccc1 [Benzophenone- 2-Amino-5-chloro], the LC retention time was 10.5 min. For CCOC1OC(C(=O)O)C(O)C(O)C1O (stereo not drawn) [EtG (Na)], the LC retention time was 1.52 min. For CCCCOC(=O)C1C(C(=O)OCCCC)C2(Cl)C(Cl)=C(Cl)C1(Cl)C2(Cl)Cl (stereo not drawn) [Chlorendate-Dibutyl], the LC retention time was 14 min. Molecule CC12CCC(=O)C=C1CCC1C2CCC2(C)C(OC(=O)c3ccccc3)CCC12 (stereo not drawn) [Testosterone benzoate] has an LC retention time of 13.8 min. CN(C)S(N)(=O)=O [N,N-Dimethylsulfamide] gave an LC retention time of 2.02 min. In the case of CC1C(c2ccccc2)OCCN1C (stereo not drawn) [Phendimetrazine], the LC retention time is reported as 4.06 min. Molecule On1nnc2ccccc21 [Benzotriazole-1-Hydroxy] has an LC retention time of 3.88 min. For CCOP(=O)(OCC)OP(=O)(OCC)OCC [TEPP], the LC retention time was 6.49 min. C[N+](C)([O-])CCC(c1ccccc1)c1ccccn1 (stereo not drawn) [Pheniramine N-Oxide] gave an LC retention time of 5.39 min. With C[Si](Cn1cncn1)(c1ccc(F)cc1)c1ccc(F)cc1 [Flusilazole] the LC retention time was 10.5 min. NC(Cc1cc(I)c(O)c(I)c1)C(=O)O (stereo not drawn) [Tyrosine-3.5-Diiodo] gave an LC retention time of 4.77 min. In the case of CN(C(=O)CN(CCO)CC(=O)N(C)C(C)(C)Cc1ccccc1)C(C)(C)Cc1ccccc1 [Oxetacaine], the LC retention time is reported as 10.9 min. For CC(C)c1ccc(NC(=O)N(C)C)cc1 [Isoproturon], the LC retention time was 8.32 min. CN(C)CCCN1c2ccccc2CCc2ccc(Cl)cc21 [Clomipramine] showed an LC retention time of 9.21 min. In the case of OC(c1ccccc1)(c1ccccc1)C1CCCCN1 (stereo not drawn) [Pipradrol], the LC retention time is reported as 5.78 min. Work on CC(=O)Nc1cc(NS(=O)(=O)C(F)(F)F)c(C)cc1C [Mefluidide] yielded an LC retention time of 6.85 min. CC(C)OC(=O)NC(C(=O)NC(C)c1nc2ccc(F)cc2s1)C(C)C (stereo not drawn) [Benthiavalicarb-isopropyl] gave an LC retention time of 9.48 min. With COP(=S)(OC)Oc1nc(Cl)c(Cl)cc1Cl [Chlorpyriphos-methyl] the LC retention time was 11.7 min. In the case of COc1cc(C=C2CCCC(=Cc3ccc(O)c(OC)c3)C2=O)ccc1O [Cyclovalone], the LC retention time is reported as 9.59 min. Molecule CC1(C)C(C(=O)c2nn(CCCCCF)c3ccccc23)C1(C)C [FAB-144] has an LC retention time of 12.7 min. Molecule CCCCCn1cc(C(=O)c2cccc3ccccc23)cc1-c1ccccc1F [JWH-307] has an LC retention time of 12.8 min. With CC(C)(C)NCC(O)COc1ccccc1C1CCCC1 (stereo not drawn) [Penbutolol] the LC retention time was 9.01 min. Work on CC(C)c1nc(CN(C)C(=O)NC(C(=O)NC(Cc2ccccc2)CC(O)C(Cc2ccccc2)NC(=O)OCc2cncs2)C(C)C)cs1 (stereo not drawn) [Ritonavir] yielded an LC retention time of 11.1 min. Work on Cc1nn(C)c(Oc2ccccc2)c1C=NOCc1ccc(C(=O)OC(C)(C)C)cc1 [Fenpyroximate] yielded an LC retention time of 13.2 min. Molecule O=C(O)Cc1ccccc1Nc1c(Cl)cccc1Cl [Diclofenac] has an LC retention time of 10.2 min. With COC=C(C(=O)OC)c1ccccc1COc1cc(C(F)(F)F)nc(OC(C)C)n1 [Fluacrypyrim] the LC retention time was 11.5 min. O=c1oc2ccccc2c(O)c1C(CC(O)c1ccc(-c2ccc(Br)cc2)cc1)c1ccccc1 (stereo not drawn) [Bromadiolone] gave an LC retention time of 11.5 min. In the case of O=C(O)C1C2CCC(O2)C1C(=O)O (stereo not drawn) [Endothal], the LC retention time is reported as 3.2 min. In the case of CCOP(=S)(OCC)Oc1cnccn1 [Thionazin (Zinophos)], the LC retention time is reported as 8.35 min. CC(CCCNCCO)Nc1ccnc2cc(Cl)ccc12 (stereo not drawn) [Chloroquine-Desethylhydroxy] gave an LC retention time of 3.88 min. For CCOc1ccc2c(c1)C(C)=CC(C)(C)N2 [Ethoxyquin], the LC retention time was 10.1 min. CCOP(=S)(OCC)SCn1c(=O)oc2cc(Cl)ccc21 [Phosalone] gave an LC retention time of 11.3 min. CCCCCCCCCCCC[N+](C)(C)Cc1ccccc1 [Benzododecinium (Benzyl-dimethyl-dodecylammonium)] showed an LC retention time of 11.2 min. With NC(C(=O)NC1C(=O)N2C(C(=O)O)=C(Cl)CSC12)c1ccccc1 (stereo not drawn) [Cefaclor] the LC retention time was 4.09 min. Molecule CC(C)(COCc1cccc(Oc2ccccc2)c1)c1ccc(OC(F)(F)Br)cc1 [Halfenprox] has an LC retention time of 14.3 min.
